Experiments:
BTK-Btn [1] = molecular target: T1, BTK-Btn (Homo sapiens, UniProt Q06187); assay: TR-FRET competition binding assay, BTK-Btn with tracer TR 178 (low tracer / low kinase); design: 6xHis (N); made in house; host or cells: Sf-9 insect cells (baculovirus)
BTK = molecular target: T2, BTK (Homo sapiens, UniProt Q06187); assay: Enzymatic assay for BTK (Caliper, peptide substrate); type: biochemical; conditions: 5 nM BTK, 100 μM ATP; for IC50: […] peptide substrate, read-out: Enzyme IC50
T2 construct: mixed with 26 μL of purified full length BTK (final concentration of 5 nM); purchased Invitrogen (Carlsbad, Calif.)
T2 sequence (Q06187 whole entry): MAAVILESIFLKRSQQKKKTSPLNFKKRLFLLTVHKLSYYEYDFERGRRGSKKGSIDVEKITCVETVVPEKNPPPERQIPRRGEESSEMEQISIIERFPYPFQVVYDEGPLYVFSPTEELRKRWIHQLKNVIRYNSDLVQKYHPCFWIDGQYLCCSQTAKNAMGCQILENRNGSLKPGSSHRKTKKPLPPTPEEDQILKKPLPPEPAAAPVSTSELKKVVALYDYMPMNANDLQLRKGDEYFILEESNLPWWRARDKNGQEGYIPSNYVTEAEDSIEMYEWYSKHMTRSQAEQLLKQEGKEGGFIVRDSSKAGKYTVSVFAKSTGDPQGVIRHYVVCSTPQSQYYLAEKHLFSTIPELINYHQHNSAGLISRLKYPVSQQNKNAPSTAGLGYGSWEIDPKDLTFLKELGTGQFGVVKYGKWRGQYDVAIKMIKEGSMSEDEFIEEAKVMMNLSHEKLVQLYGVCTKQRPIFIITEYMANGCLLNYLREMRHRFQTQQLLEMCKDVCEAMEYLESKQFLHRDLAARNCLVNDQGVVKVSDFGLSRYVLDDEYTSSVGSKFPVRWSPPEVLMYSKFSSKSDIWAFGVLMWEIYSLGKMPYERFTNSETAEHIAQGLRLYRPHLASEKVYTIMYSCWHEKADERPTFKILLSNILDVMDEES

BTK-Btn [2] = molecular target: T1, BTK-Btn; assay: TR-FRET competition binding assay, BTK-Btn with tracer AF647-staur; conditions: read-out: FRET IC50, 0.5 nM BTK-Btn, 0.5 nM Eu-strept
[3] = 0.05 nM BTK-Btn and 0.5 nM TR 178
[4] = 0.05 nM TR 178 and 0.5 nM BTK-Btn
[5] = 0.05 nM BTK-Btn and 0.5 nM TR 178, read-out: Low kinase IC50
[6] = 0.05 nM TR 178 and 0.5 nM BTK-Btn, read-out: Low tracer IC50

T1 sequence (Q06187 whole entry): as above

CC(C)(C)n1nc(-c2ccc(Cl)cc2)c2c(N)ncnc21 [PP2]
Low kinase nH (BTK-Btn [1]; [3]): 1.8 ± 0.1
Low tracer nH (BTK-Btn [1]; [4]): 0.9 ± 0.1
Enzyme nH (hill slope of dose response curve) (BTK): 1.1 ± 0.1

N#CC(C#N)=Cc1cc(O)c(O)c(O)c1 [Tyrphostin 25]
IC50 (BTK-Btn [2]): 48 ± 15 µM
Low kinase nH (BTK-Btn [1]; [3]): 0.8 ± 0.1
IC50 (BTK-Btn [1]; [5]): 130 ± 10 µM
Low tracer nH (BTK-Btn [1]; [4]): 0.6 ± 0.2
IC50 (BTK-Btn [1]; [6]): 45 ± 9 µM
Enzyme nH (hill slope of dose response curve) (BTK): 0.6 ± 0.1
IC50 (BTK): > 100 µM

Nc1ncnc2c1ncn2[C@@H]1O[C@H](COP(=O)(O)OP(=O)(O)O)[C@@H](O)[C@H]1O [ADP]
IC50 (BTK-Btn [2]): 46 ± 7 µM
Low kinase nH (BTK-Btn [1]; [3]): 0.9 ± 0.1
IC50 (BTK-Btn [1]; [5]): 200 ± 40 µM
Low tracer nH (BTK-Btn [1]; [4]): 0.7 ± 0.2
IC50 (BTK-Btn [1]; [6]): 40 ± 11 µM
Enzyme nH (hill slope of dose response curve) (BTK): 1.0 ± 0.1
IC50 (BTK): > 100 µM

CC(O)=C(C#N)C(=O)Nc1cc(Br)ccc1Br [LFM-A13, alpha-cyano-beta-hydroxy-beta-methyl-N-(2,5-dibromophenyl)propenamide]
Low kinase nH (BTK-Btn [1]; [3]): 1.3 ± 0.1
Low tracer nH (BTK-Btn [1]; [4]): 0.6 ± 0.2
Enzyme nH (hill slope of dose response curve) (BTK): 1.1 ± 0.1
